Laboratory results published in patent US5137889A, “Dihydropyridine derivatives and process for preparing the same” (Otsuka Pharmaceutical Co., Ltd., priority 1983, dated 1992).
Read-outs that look alike come from different tables or passages of the source.

Tests used:
[1] = biological target: T1, Calmodulin-cyclic-AMP phosphodiesterase (Bos taurus, UniProt P62157); assay: Calmodulin-cyclic-AMP phosphodiesterase inhibitory activity (presence of calmodulin); format: biochemical, bovine
T1 construct: tissue Amano & Co. (calmodulin only); host or cells: phosphodiesterase: bovine heart, partially purified; calmodulin: bovine brain
Description: (1) Calmodulin: A calmodulin product manufactured by Amano & Co., which was isolated from the brain of bovine, and purified so as to be considered as a single substance with respect to SDS-page (polyacrylamide gel electrophoresis) method.
(§1) (2) Calmodulin-dependent cyclic-AMP phosphodiesterase (EC 3.1.4.17): An enzyme substance isolated from the heart of bovine and purified partially by a method of modified version of the disclosure in H. C. Ho, T. S. Teo, et al.: "Biochim. Biophys. Acta", 429, 461 (1976).
(§2) (3) 5'-Nucleotidase (EC 3.1.3.5): Grade IV substance (isolated from Crotalus adamanteus venom) manufactured by Sigma & Co.
(§3) (4) Others: Remainder of the reagents used in the test were those of reagent grade chemicals manufactured by Wako Pure-Chemical Industries, Ltd.
(§4) Calmodulin inhibitory activity of each of the test compounds was measured by a method of modified version of the disclosure in T. S. Teo and T. H. Wang: "J. Bio. Chem.", 248, 588 (1973).
(2) Calmodulin: One unit thereof stimulates 0.015 activated unit of cyclic-AMP phosphodiesterase to 50% of the maximum activity of the enzyme.
(§5) (3) 5'-Nucleotidase: One unit thereof hydrolyzes 1.0 micromole of inorganic phosphorus from adnosine 5'-monophosphate per minute at pH 9.0 at 37° C.
(1) Calmodulin-cyclic-AMP phosphodiesterase inhibitory activity:
40 mM of Imidazol, 20 mM of MgCl2, 20 mM of CaC12, 0.008 unit of cyclic-AMP phosphodiesterase, 1.0 unit of calmodulin, 0.2 unit of 5'-nucleotidase and 1.0 ml of 10 mM-tris(hydroxymethyl)aminomethane/HCl buffer solution (pH 7.0) containing 0.5 mM of cyclic-AMP were mixed together, and reacted at 30° C. for 30 minutes. Each of the test compounds was dissolved in methanol or N,N-dimethylformamide as the solvent, provided that the quantity of the solvent was not exceed 2% of the total amount of the mixture. After the reaction was completed, the reaction mixture was ice-cooled, and 0.5 ml each of aqueous solutions of 16.5%-trichloroacetic acid, 1%-thiourea, 3%-ammonium ferrous sulfate were respectively added to the reaction mixture. Further, 0.15 ml of 4.4%-ammonium molibdate solution was added to the mixture and the whole of the mixture was stirred, and was centrifuged at 3,000 r.p.m. for 10 minutes. Then, the centrifuged mixture was allowed to stand at a room temperature for 20 minutes. The OD660 nm (optical density at 660 nm) was measured.

[2] = biological target: T2, Cyclic-AMP phosphodiesterase (Bos taurus, UniProt P14100); assay: Cyclic AMP phosphodiesterase inhibitory activity (absence of calmodulin, EGTA in place of CaCl2); format: biochemical, bovine; details: 1 mM EGTA in place of CaCl2; 3 hours
T2 construct: from tissue; host or cells: bovine heart, partially purified
T2 sequence (P14100 1-514 isoform P14100-2): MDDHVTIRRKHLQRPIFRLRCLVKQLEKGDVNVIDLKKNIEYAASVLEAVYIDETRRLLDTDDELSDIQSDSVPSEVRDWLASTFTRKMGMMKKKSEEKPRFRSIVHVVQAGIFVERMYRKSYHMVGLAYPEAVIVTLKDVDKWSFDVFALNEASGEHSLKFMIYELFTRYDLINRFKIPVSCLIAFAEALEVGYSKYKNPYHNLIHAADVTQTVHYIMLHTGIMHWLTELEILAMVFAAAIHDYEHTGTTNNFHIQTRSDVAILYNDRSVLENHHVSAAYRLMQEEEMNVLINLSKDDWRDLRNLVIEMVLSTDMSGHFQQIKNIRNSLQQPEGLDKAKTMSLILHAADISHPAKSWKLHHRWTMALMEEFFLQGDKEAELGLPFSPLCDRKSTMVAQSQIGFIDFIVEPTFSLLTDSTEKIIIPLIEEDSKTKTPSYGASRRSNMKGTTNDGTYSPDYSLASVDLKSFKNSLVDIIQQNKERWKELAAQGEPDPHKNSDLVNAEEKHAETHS
Description: as §1, §2, §3, §4, §5
(2) Cyclic AMP phosphodiesterase inhibitory activity:
The reaction was conducted by a method similar to that described in (1) as mentioned above, except that 1 mM of EGTA [ethylene glycol-bis(β-amino ethyl ether)-N,N-tetraacetic acid] was used in place of 20 mM of CaCl2. The reaction was conducted for 3 hours.

[3] = system: SHR-rats (spontaneously hypertensive rats); details: 30 mg/kg p.o.
Description: Systolic blood pressures and heart beat of SHR-rats (spontaneously hypertensive rats) were determined by a "tail cuff method". Thus the test animal was placed in a thermostat chamber (Type: FR-12RS, manufactured by Isuze & Co.) and was warmed at 40° C. for 15 minutes so as to vasodilate the tail arteria, the systolic blood pressures were measured by an electro sphygmomanometer (Type: PE-300, manufactured by Narco-Biosystems, Inc.) and recorded by an ink-writing recorder (Type: RECTI-HORIZ 8s, manufactured by San-Ei Instrument & Co.). The experiments were conducted under non-anesthetized and semi-confinement conditions. The test compound was orally administered forcedly by using a sonde for oral administration. The test compound was suspended in 0.15%-gum arabic powder aqueous solution so as to make the quantity of the test compound to 2.5 ml/kg. The test animal was not fasted, and the systolic blood pressures (mm-Hg) were measured before the administration (hereinafter referred to as "PRE") and after the administration (8, 24, 30, 48, 54 and 72 hours after the administration) of the test compound. The data of systolic blood pressure measured before the administration are shown in absolute value of mmHg, and the data measured after the administration are shown in the differences from the absolute values.

[4] = with calmodulin and CaCl2, pH 7.0, 30° C., 30 minutes, read-out: Calmodulin-cyclic-AMP phosphodiesterase IC50 (converted)

| Compound | IC50 [1, 4] [µM] | IC50 [2] [µM] | other results |
| --- | --- | --- | --- |
| COC(=O)C1=C(C)NC(C)=C(C(=O)OC/C=C/c2ccc(O)cc2)C1c1ccccc1C(F)(F)F (stereo not drawn) [Example 14] | 12.8 |  |  |
| COC(=O)C1=C(C)NC(C)=C(C(=O)OC/C=C/c2ccccc2)C1c1cccc([N+](=O)[O-])c1 (stereo not drawn) [Test Compound 2, Methyl 3-phenyl-2(E)-propenyl 1,4-dihydro-2,6-dimethyl-4-(3-nitrophenyl)pyridine-3,5-dicarboxylate] | 5.57 |  |  |
| COC(=O)C1=C(C)NC(C)=C(C(=O)OC/C=C/C=C/c2ccc(O)cc2)C1c1cccc([N+](=O)[O-])c1 (stereo not drawn) [Test Compound 3, Methyl 5-(4-hydroxyphenyl)-2(E),4(E)-pentadienyl 1,4-dihydro-2,6-dimethyl-4-(3-nitrophenyl)-pyridine-3,5-dicarboxylate] | 1.73 |  |  |
| COC(=O)C1=C(C)NC(C)=C(C(=O)OC/C=C/c2ccc(O)c(OC)c2)C1c1cccc([N+](=O)[O-])c1 (stereo not drawn) [Test Compound 7, Methyl 3-(3-methoxy-4-hydroxyphenyl)-2(E)-propenyl 1,4-dihydro-2,6-dimethyl-4-(3-nitrophenyl)pyridine-3,5-dicarboxylate] | 10.5 |  |  |
| COC(=O)C1=C(C)NC(C)=C(C(=O)OC/C=C/c2ccc(OC)cc2)C1c1cccc([N+](=O)[O-])c1 (stereo not drawn) [Test Compound 8, Methyl 3-(4-methoxyphenyl)-2(E)-propenyl 1,4-dihydro-2,6-dimethyl-4-(3-nitrophenyl)-pyridine-3,5-dihydrocarboxylate] | 5.64 |  |  |
| COC(=O)C1=C(C)NC(C)=C(C(=O)OC/C=C/c2nnnn2C)C1c1cccc([N+](=O)[O-])c1 (stereo not drawn) [Test Compound 9, Methyl 3-(1-methyl-1,2,3,4-tetrazol-5-yl)-2(E)-propenyl 1,4-dihydro-2,6-dimethyl-4-(3-nitrophenyl)pyridine-3,5-dicarboxylate] | 11.7 | 79.2 |  |
| COC(=O)C1=C(C)NC(C)=C(C(=O)OC/C=C/c2ccco2)C1c1cccc([N+](=O)[O-])c1 (stereo not drawn) [Test Compound 10, Methyl 3-furyl-2(E)-propenyl 1,4-dihydro-2,6-dimethyl-4-(3-nitrophenyl)pyridine-3,5-dicarboxylate] | 3.54 | > 228 |  |
| COC(=O)C1=C(C)NC(C)=C(C(=O)OC/C=C/c2ccc(O)c(Cl)c2)C1c1cccc([N+](=O)[O-])c1 (stereo not drawn) [Test Compound 11, Methyl 3-(3-chloro-4-hydroxyphenyl)-2(E)-propenyl 1,4-dihydro-2,6-dimethyl-4-(3-nitrophenyl)pyridine-3,5-dicarboxylate] | 10.6 | 200 |  |
| COC(=O)C1=C(C)NC(C)=C(C(=O)OC/C=C/c2ccccc2O)C1c1cccc([N+](=O)[O-])c1 (stereo not drawn) [Test Compound 13, Methyl 3-(2-hydroxyphenyl)-2(E)-propenyl 1,4-dihydro-2,6-dimethyl-4-(3-nitrophenyl)-pyridine-3,5-dicarboxylate] | 3.55 |  |  |
| COC(=O)C1=C(C)NC(C)=C(C(=O)OC/C=C/c2ccc(OC(C)=O)cc2)C1c1cccc([N+](=O)[O-])c1 (stereo not drawn) [Test Compound 16, Methyl 3-(4-acetyloxyphenyl)-2(E)-propenyl 1,4-dihydro-2,6-dimethyl-4-(3-nitrophenyl)-pyridine-3,5-dicarboxylate] | 5.92 |  |  |
| COC(=O)C1=C(C)NC(C)=C(C(=O)OCCN2CC=C(c3ccc(C)cc3)CC2)C1c1cccc([N+](=O)[O-])c1 (stereo not drawn) [Test Compound 17, Methyl 2-[4-(4-methylphenyl)-1,2,3,6-tetra-hydropyridyl]ethyl 1,4-dihydro-2,6-dimethyl-4-(3-nitrophenyl)pyridine-3,5-dicarboxylate] | 10.3 | > 188 |  |
| COC(=O)C1=C(C)NC(C)=C(C(=O)OC/C=C/c2ccc(O)cc2)C1c1ccccc1 (stereo not drawn) [Test Compound 18, Methyl 3-(4-hydroxyphenyl)-2(E)-propenyl 1,4-dihydro-2,6-dimethyl-4-phenylpyridine-3,5-dicarboxylate] | 16.2 |  |  |
| COC(=O)C1=C(C)NC(C)=C(C(=O)OC/C=C/c2ccc(O)cc2)C1c1ccccc1C (stereo not drawn) [Test Compound 19, Methyl 3-(4-hydroxyphenyl)-2(E)-propenyl 1,4-dihydro-2,6-dimethyl-4-(2-methylphenyl)-pyridine-3,5-dicarboxylate] | 13.4 |  |  |
| COC(=O)C1=C(C)NC(C)=C(C(=O)OC/C=C/c2ccc(O)cc2)C1c1ccc(OC)c(OC)c1 (stereo not drawn) [Test Compound 20, Methyl 3-(4-hydroxyphenyl)-2(E)-propenyl 1,4-dihydro-2,6-dimethyl-4-(3,4-dimethoxy-phenyl)pyridine-3,5-dicarboxylate] | 6.67 | 62.6 |  |
| COC(=O)C1=C(C)NC(COC/C=C/c2ccc(O)cc2)=C(C(=O)OC)C1c1cccc([N+](=O)[O-])c1 (stereo not drawn) [Test Compound 21, Dimethyl 1,4-dihydro-2-[3-(4-hydroxyphenyl)-2(E)-propenyloxymethyl]-6-methyl-4-(3-nitrophenyl)pyridine-3,5-dicarboxylate] | 12.1 | > 202 |  |
| COC(=O)C1=C(C)NC(C)=C(C(=O)OCC#Cc2cccs2)C1c1cccc([N+](=O)[O-])c1 (stereo not drawn) [Test Compound 22, Methyl 3-(2-thienyl)-2-propynyl 1,4-dihydro-2,6-dimethyl-4-(3-nitrophenyl)pyridine-3,5-dicarboxylate] | 2.43 | > 221 |  |
| COC(=O)C1=C(C)NC(C)=C(C(=O)OCCN2CCN(CC#Cc3ccccc3)CC2)C1c1cccc([N+](=O)[O-])c1 (stereo not drawn) [Test Compound 23, Methyl 2-[4-(3-phenyl-2-propynyl)-1-piperazinyl]ethyl 1,4-dihydro-2,6-dimethyl-4-(3-nitrophenyl)pyridine-3,5-dicarboxylate] | 14.3 | > 179 |  |
| COC(=O)C1=C(C)NC(C)=C(C(=O)OC/C=C/c2ccc(O)cc2)C1c1ccc(Cl)cc1Cl (stereo not drawn) [Test Compound 24, Methyl 3-(4-hydroxyphenyl)-2(E)propenyl 1,4-dihydro-2,6-dimethyl-4-(2,4-dichloro-phenyl)pyridine-3,5-dicarboxylate] | 5.02 | 30.7 |  |
| COC(=O)C1=C(C)NC(C)=C(C(=O)OCCN(C)Cc2ccccc2)C1c1cccc([N+](=O)[O-])c1 (stereo not drawn) [Test Compound 26, Methyl 2-(N-methyl-N-benzylamino)ethyl 1,4-dihydro-2,6-dimethyl-4-(3-nitrophenyl)pyridine-3,5-dicarboxylate, reference compound] |  |  | IC50 [1]: 13 µM |
| methyl 3-(4-tetrahydropyranyloxyphenyl)-2(E)-propenyl 1,4-dihydro-2,6-dimethyl-4-(3-nitrophenyl)pyridine-3,5-dicarboxylate [Example 1] |  |  | Blood pressure after the administration, 8 hours (difference from the absolute value before administration) ([3]; 8 hours): -20.3 mm-Hg; Blood pressure after the administration, 24 hours (difference from the absolute value before administration) [3]: -41.0 mm-Hg; Blood pressure after the administration, 24 hours (difference from the absolute value before administration) ([3]; listed as 6): +1.8 mm-Hg; Blood pressure after the administration, 30 hours (difference from the absolute value before administration) [3]: -52.0 mm-Hg; Blood pressure after the administration, 48 hours (difference from the absolute value before administration) [3]: -26.5 mm-Hg; Blood pressure after the administration, 54 hours (difference from the absolute value before administration) [3]: -19.8 mm-Hg; Blood pressure after the administration, 72 hours (difference from the absolute value before administration) ([3]; 72 hours): -12.5 mm-Hg |
| methyl 3-[4-(2-tetrahydropyranyloxyphenyl)]-2-propynyl 1,4-dihydro-2,6-dimethyl-4-(3-nitrophenyl)pyridine-3,5-dicarboxylate [Example 3] |  |  | Blood pressure after the administration, 24 hours (difference from the absolute value before administration) [3]: -31.0 mm-Hg; Blood pressure after the administration, 30 hours (difference from the absolute value before administration) [3]: -30.8 mm-Hg; Blood pressure after the administration, 48 hours (difference from the absolute value before administration) [3]: -15.6 mm-Hg; Blood pressure after the administration, 54 hours (difference from the absolute value before administration) [3]: -12.6 mm-Hg |
